Source: patent publication US12042492B2 (priority 2020, dated 2024)
Marks after values point to notes of the source that are not given here.

Legend:
[1] = test system: mAPP transfected N2a cells; experiment: Cell viability / apoptotic cell death in mAPP transfected N2a cells; assay type: cell-based, mouse
Method: (§1) The N2a cells grown for 6 days in a serum-free medium (1:1 mixture of DMEM and OptiMEM, plus penicillin and streptomycin (Invitrogen, Carlsbad, CA, USA) until the cells developed neuronal processes. As shown in (FIG. 10), these cells were used for 4 groups—one control group and 3 treatment groups. 1) untreated N2a cells (the control group), 2) N2a cells treated with ligand 1 (N2a+ligand 1), 3) N2a cells transfected mAPP with the (lipofectamine) (20 μM final concentration for 6 hrs (mAPP), 4) N2a cells transfected with mAPP cDNA for 6 hrs, treated with ligand 1 (mAPP+ligand 1 treatment group), N2a cells treated with ligand 1 for 24 hrs and then treated with the mAPP cDNA for 6 hrs (ligand 1+mAPP treatment group). As shown in (FIG. 10), the inventors performed 4 independent cell cultures and treatments for all experiments (n=4).
Cell viability and apoptotic cell death MTT assay. Ligand 1 treated N2a cells, cell based apoptosis assay was performed using Cellometer Vision CBA Image Cytometry System (Nexcelom Bioscience LLC, Lawrence, MA) with two fluorophore Annexin V-FITC and Propidium Iodide (PI) staining solution, according to manufacturer's instructions. Briefly, cells were harvested using trypsin, then spin down at 300 g for three minutes and pellets were washed with 1×PBS, cells were counted using hematocytometer. […]

mAPP N2a cells = experiment: qRT-PCR mRNA expression in mAPP N2a cells treated with ligand 1; assay type: cell-based, mouse
Method: as §1
mRNA levels of mitochondrial dynamics and mitochondrial biogenesis and synaptic genes. Using the reagent TriZol (Invitrogen), the inventors isolated total RNA from 4 independent treatments of N2a cells (n=4) from control (untreated N2a cells) and experimental treatments (N2a cells treated with Ligand 1; N2a cells transfected with mAPP; N2a cells transfected with mAPP and then treated with Ligand 1. Using primer express Software (Applied Biosystems), the inventors designed the oligonucleotide primers for the housekeeping genes β-actin, GDPH; APP-related genes (APP, BACE1 and PSN1); mitochondrial structural genes; fission (Drp1 and Fis1); fusion genes (MFN1, MFN2, Opa1) (54), mitochondrial biogenesis genes (PGC1α, Nrf1, Nrf2, and Tfam) (Manczak et al., 2019), and synaptic proteins (SYN, PSD95 and MAP2). The primer sequences and amplicon sizes are listed in (Table 1). With SYBR-Green chemistry-based quantitative real-time RT-PCR, the inventors measured mRNA expression of the genes mentioned above as described by Manczak et al. 2019(54). Briefly, 2 μg of DNAse-treated total RNA was used as starting material, to which the inventors added 1 μl of oligo (dT), 1 μl of 10 mM dNTPs, 4 μl of 5× first strand buffer, 2 μl of 0.1 M DTT, and 1 μl RNAse outout. The reagents RNA, dT), and dNTPs were mixed first, then heated at 65° C. for 5 min, and finally chilled on ice until the remaining components were added. The samples were incubated at 42° C. for 2 min, and then 1 μl of Superscript II (40 U/μl) was added. The samples were then incubated at 42° C. for 50 min, at which time the reaction was inactivated by heating at 70° C. for 15 min.
Quantitative real-time PCR amplification reactions were performed in N2a cells in an ABI Prism 7900 sequence detection system (Applied Biosystems, Foster City, CA) in a 25-μl volume of total reaction mixture. The reaction mixture consisted of 1×PCR buffer containing SYBR-Green; 3 mM MgCl2; 100 nm of each primer; 200 nm of dATP, dGTP, and dCTP each; 400 nm of dUTP; 0.01 U/μl of AmpErase UNG; and 0.05 U/μl of AmpliTaq Gold. A 20 ng cDNA template was added to each reaction mixture.
The CT-values of β-actin was tested to determine the unregulated endogenous reference gene in N2a cells that were treated with Aβ and protective molecules, and in untreated N2a cells. In the latter case, the CT-value was similar in untreated and N2a cells treated with MTAs and Aβ. The CT-value is an important quantitative parameter in real-time PCR analysis as described in Gutala and Reddy (2004) (55). All RT-PCR reactions were carried out in triplicate, with no template control. The PCR conditions were: 50° C. for 2 min and 95° C. for 10 min, followed by 40 cycles of 95° C. for 15 sec and 60° C. for 1 min. The fluorescent spectra were recorded during the elongation phase of each PCR cycle. To distinguish specific amplicons from non-specific amplifications, a dissociation curve was generated. […]

[2] = N2a + mAPP + ligand1 relative to mAPP N2a cells
[3] = N2a + mAPP + ligand1 relative to mAPP N2a cells, listed as ligand 1
[4] = N2a + mAPP + ligand1 relative to mAPP N2a cells, listed as ligand1
[5] = N2a + mAPP + ligand1 relative to mAPP N2a cells, negative = decrease
[6] = N2a + mAPP + ligand1 relative to untreated N2a cells
[7] = ligand 1 treated mAPP cells relative to mAPP cells, size of the decrease, P<0.05

With “[(6As,8S,10aS,12aS)-10a, 12a-dimethyl-2-oxo-3,4,4a,4b,5,6,6a,7,8,9,10,10b,11,12-tetradecahydro-1H-naphtho[2,1-f]quinolin-8-yl] 4-[4-[bis(2-chloroethyl)amino]phenyl]butanoate [Ligand 1]” the Apoptotic cell death ([1]; mAPP transfected cells) was “reduced”, the Cell viability ([1]; mAPP+ligand 1 compared to mAPP cells, P=0.181) was “not significantly increased” and the “mRNA fold change Mfn1” value (mAPP N2a cells; [2]) was 1.3 fold. The “mRNA fold change OPA1” value (mAPP N2a cells; [2]) was 1.2 fold, the “mRNA fold change Mfn2” value (mAPP N2a cells; [3]) was 1.5 fold and the “mRNA fold change Nrf1” value (mAPP N2a cells; [3]) was 2.1 fold. For the same substance, the “mRNA fold change Nrf2” value (mAPP N2a cells; [3]) was 2.1 fold, the “mRNA fold change PGC1a” value (mAPP N2a cells; [3]) was 2.0 fold and the “mRNA fold change PSD95” value (mAPP N2a cells; [3]) was 1.3 fold. For the same substance, the “mRNA fold change Synaptophysin” value (mAPP N2a cells; [3]) was 1.9 fold, the “mRNA fold change TFAM” value (mAPP N2a cells; [3]) was 1.8 fold and the “mRNA fold change Mfn2” value (mAPP N2a cells; [4]) was 1.5* fold. For the same substance, the “mRNA fold change Nrf1” value (mAPP N2a cells; [4]) was 2.1** fold, the “mRNA fold change Nrf2” value (mAPP N2a cells; [4]) was 2.1** fold and the “mRNA fold change PGC1a” value (mAPP N2a cells; [4]) was 2.0** fold. For the same substance, the “mRNA fold change PSD95” value (mAPP N2a cells; [4]) was 1.8* fold, the “mRNA fold change Synaptophysin” value (mAPP N2a cells; [4]) was 1.9* fold and the “mRNA fold change TFAM” value (mAPP N2a cells; [4]) was 1.8* fold. The “mRNA fold change APP” value (mAPP N2a cells; [5]) was −1.5* fold, the “mRNA fold change BACE1” value (mAPP N2a cells; [5]) was −1.4* fold and the “mRNA fold change Drp1” value (mAPP N2a cells; [5]) was −2.3** fold. For the same substance, the “mRNA fold change Fis1” value (mAPP N2a cells; [5]) was −1.5* fold, the “mRNA fold change Presenilin1” value (mAPP N2a cells; [5]) was −1.5* fold and the “mRNA fold change APP” value (mAPP N2a cells; [6]) was 1.3 fold. The “mRNA fold change BACE1” value (mAPP N2a cells; [6]) was 1.1 fold, the “mRNA fold change Drp1” value (mAPP N2a cells; [6]) was 1.1 fold and the “mRNA fold change Fis1” value (mAPP N2a cells; [6]) was 1.0 fold. For the same substance, the “mRNA fold change Mfn1” value (mAPP N2a cells; [6]) was −1.2 fold, the “mRNA fold change Mfn2” value (mAPP N2a cells; [6]) was 1.1 fold and the “mRNA fold change Nrf1” value (mAPP N2a cells; [6]) was 1.2 fold. For the same substance, the “mRNA fold change Nrf2” value (mAPP N2a cells; [6]) was 1.4 fold, the “mRNA fold change OPA1” value (mAPP N2a cells; [6]) was 1.1 fold and the “mRNA fold change PGC1a” value (mAPP N2a cells; [6]) was 1.2 fold. For the same substance, the “mRNA fold change PSD95” value (mAPP N2a cells; [6]) was 1.3 fold, the “mRNA fold change Presenilin1” value (mAPP N2a cells; [6]) was −1.2 fold and the “mRNA fold change Synaptophysin” value (mAPP N2a cells; [6]) was 1.3 fold. The “mRNA fold change TFAM” value (mAPP N2a cells; [6]) was 1.5 fold, the “APP mRNA, fold decreased” value (mAPP N2a cells; [7]) was 1.5 fold and the “BACE1 mRNA, fold decreased” value (mAPP N2a cells; [7]) was 1.4. For the same substance, the “PSN1 mRNA, fold decreased” value (mAPP N2a cells; [7]) was 1.5, the “Drp1 mRNA, fold reduced” value (mAPP N2a cells; mAPP+ligand 1 treated cells relative to mAPP cells, size of the decrease, P<0.005) was 2.3 fold and the “Fis1 mRNA, fold reduced” value (mAPP N2a cells; mAPP+ligand 1 treated cells relative to mAPP cells, size of the decrease, P<0.05) was 1.5 fold.
